Bounds are passed on as bounds.

For orientation: Ki means a measure of affinity in units of concentration, obtained from inhibition or displacement. A higher Ki goes with lower affinity.

The target in assay [1] is T1, Histamine H3 receptor (Rattus norvegicus, UniProt Q9QYN8).
T1 construct: from tissue; host or cells: rat cerebral cortex membranes
Put plainly: In vitro histamine H3 receptor binding analysis, [3H]-Nα-methylhistamine, rat cortical membranes. Conditions: Ki=IC50/(1+([Ligand]/[Kd]). The method, then:
Briefly, animals were sacrificed by decapitation and the cerebral cortex was rapidly removed. Rat cortices were mechanically homogenized with an Omni 1000 motor driven homogenizer in 10 volumes (wt/vol) of Krebs-Ringers Hepes buffer (pH 7.4) containing the following protease inhibitors; EDTA (10 mM), PMSF (0.1 mM), chymostatin (0.2 mg/50 ml) and leupeptin (0.2 mg/50 ml). The homogenate was centrifuged in a Sorvall at ˜40,000×g for 30 min. The pellet was resuspended by mechanical homogenization in 25 ml water and lysed on ice for 30 min. The homogenate was recentrifuged and the membrane lysis was repeated. The membranes were recentrifuged and the final pellet was resuspended in 14 volumes of water to give approximately 200 μg protein/100 μl final concentration. The suspension was stored at −80° C. prior to use. Protein concentrations were determined by Coomassie Plus Protein Assay (Pierce, Rockford, Ill.).
Nonspecific binding (NSB) was accounted for by the inclusion of thioperamide (10 μM). The samples were incubated for 40 min at 25° C. Samples were filtered through glass fiber strips, pre-washed with 0.3% polyethyleneimine, using a Brandell cell harvester. […] Filters were transferred to polyethylene minivials and counted in 3.5 ml of scintillation fluid (Ecolume, ICN Biomedicals, Inc.). […] Saturation and competition experiments were analyzed with the ReceptorFit saturation and competition curve fitting programs (Lundon Software, Inc., Cleveland, Ohio).

Assay [2] deals with cat. The following applies: cited from earlier work.
In assay [3] the test system is rats. Conditions: cited from earlier work.
In assay [4] the test system is histamine synthesis and release. The following applies: in vivo studies; cited from earlier work.
Assay [5] has as its system electrically-induced convulsions. Conditions: cited from earlier work.

T1 sequence (Q9QYN8 whole entry): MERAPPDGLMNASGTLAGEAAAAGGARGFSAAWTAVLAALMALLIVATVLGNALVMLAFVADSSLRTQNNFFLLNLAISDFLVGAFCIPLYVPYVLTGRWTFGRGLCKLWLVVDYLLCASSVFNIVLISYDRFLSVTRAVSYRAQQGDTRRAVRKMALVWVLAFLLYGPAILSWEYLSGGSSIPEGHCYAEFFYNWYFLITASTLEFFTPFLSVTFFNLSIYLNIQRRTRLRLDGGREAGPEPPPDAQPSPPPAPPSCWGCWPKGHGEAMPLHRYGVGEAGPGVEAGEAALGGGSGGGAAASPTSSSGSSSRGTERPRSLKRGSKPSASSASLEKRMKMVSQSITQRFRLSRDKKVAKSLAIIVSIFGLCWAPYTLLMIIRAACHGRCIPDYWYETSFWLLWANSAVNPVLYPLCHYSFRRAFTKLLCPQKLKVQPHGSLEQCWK

Regarding `N[C@@H](Cc1ccc(F)cc1)C(=O)NCCc1c[nH]cn1` [Example 5, 2-(S)-Amino-3-(4-flurophenyl)-N-(2-imidazoyl-4-ylethyl)propanamide], the Ki in assay [1] is 84.5 ± 12.8 nM. In assay [1], `BrC(Br)=CCCc1c[nH]cn1` [Example 47, 4-(4,4-Dibromobut-3-enyl)imidazole] registered an inhibition constant Ki of 26 ± 9.6 nM. For the compound `BrC(Br)=Cc1c[nH]cn1` [Example 48, 4-(2,2-Dibromovinyl)imidazole], the inhibition constant (Ki) in assay [1] was above 10000 nM. In assay [1], `CCCCC#CCCc1c[nH]cn1` [Example 40, 4-Oct-3-ynylimidazole] returned a Ki of 3 ± 0.2 nM. The compound `O=C(NCCc1c[nH]cn1)[C@@H]1CC2CCCCC2N1` (stereo partly drawn) [Example 12, (7-Azabicyclo[4.3.0]non-(S)-8-yl)-N-(2-imidazol-4-ylethyl)formamide] returned a Ki in assay [1] of 11.1 ± 0.4 nM. Same read-out and setting: the value for `N[C@@H](Cc1ccc(OCc2ccccc2)cc1)C(=O)NCCc1c[nH]cn1` [Example 13, 2-(S)-Amino-N-(2-imidazol-4-ylethyl)-3-(4-(phenylmethoxy)phenyl) propanamide] was 199 ± 24 nM; that for `CN[C@@H](Cc1ccccc1)C(=O)NCCc1c[nH]cn1` [Example 7] was 1650 ± 310 nM. With `S=C(NC1CCCCC1)N1CCC(c2cnc[nH]2)CC1` [thioperamide], the wakefulness entry in assay [2] is “enhanced wakefulness in a dose-dependent fashion”. Moreover, the “wakefulness, slow wave and REM sleep” value in assay [3] is “increase wakefulness and decrease slow wave and REM sleep”. For the same compound, the “synthesis and release of histamine” value in assay [4] was “increase in synthesis and release of histamine”. Besides, in assay [5] (after electrically-induced convulsions), the “durations of every convulsive phase” value was “significantly and dose-dependently decrease”. The electroconvulsive threshold result in assay [5] (in vivo) was “increase the electroconvulsive threshold”. Compound `C(=C/CCC1CCCCC1)/CCc1c[nH]cn1` [Example 24, 4-(6-Cyclohexyl-cis-3-enyl)imidazole] came in with a Ki in assay [1] of 4.2 ± 0.6 nM.

For the compound `C(=C\CCC1CCCCC1)/CCc1c[nH]cn1` [Example 25, 4-(6-Cyclohexylhex-trans-3-enyl)imidazole], the Ki in assay [1] amounted to 16 ± 2 nM.

With `N[C@@H](Cc1cccc2ccccc12)C(=O)NCCc1c[nH]cn1` [Example 8, 2-(S)-Amino-N-(2-imidazol-4-ylethyl)-3-naphthylpropanamide], in assay [1], the Ki is 299 ± 82 nM. On to `CC(C)(C)CCC#CCCc1c[nH]cn1` [Example 32, 4-(7,7-Dimethyloct-3-ynyl)imidazole], for which, in assay [1], the Ki came out at 0.8 ± 0.4 nM. Regarding `C(#CCCC1CCCC1)CCc1c[nH]cn1` [Example 30, 4-(6-Cyclopentylhex-3-ynyl)imidazole], in assay [1], affinity was put at a Ki of 0.95 ± 0.3 nM. On to `C(#CCCN1CCOCC1)CCc1c[nH]cn1` [Example 35, 4-(6-Imidazol-4-ylhex-3-ynyl)morpholine], for which the Ki in assay [1] was 1210 ± 80 nM. Regarding `C[C@H](Cc1c[nH]cn1)NC(=O)[C@@H]1CC2CCCCC2N1` (stereo partly drawn) [Example 21], in assay [1], affinity was put at a Ki of 231 ± 15 nM.

`N[C@@H](Cc1ccccc1)C(=O)NCCc1c[nH]cn1` [Example 1, 2-(S)-Amino-N-(2-imidazol-4-yletyl)-3-phenyl propanamide]: the affinity in assay [1] corresponds to a Ki of 104 ± 14 nM. Compound `C(#CCCc1c[nH]cn1)CCCC1CCCCC1` [Example 37, 4-(7-Cyclohexylhept-3-ynyl)imidazole] showed a Ki in assay [1] of 3.4 ± 1.7 nM. `C(#Cc1c[nH]cn1)CCCc1ccccc1` [Example 38, 4-(5-Phenylpent-1-ynyl)imidazole] returned a Ki in assay [1] of 591 ± 36 nM. Still for that read-out and setting: the figure for `C#CCCc1c[nH]cn1` [Example 45, 4-But-3-ynylimidazole] is 66 ± 5.5 nM; for `C#Cc1c[nH]cn1` [Example 46, 4-Ethynylimidazole] it is above 10000 nM; for `C(=C/CCc1c[nH]cn1)/CCc1ccccc1` [Example 42, 4-(6-Phenylhex-cis-3-enyl)imidazole] it is 5.5 ± 0.02 nM. On the same count and under the same terms, the figure for `N=C(N)NCCC[C@H](N)C(=O)NCCc1c[nH]cn1` [Example 19, 5-(Amidinoamino)-2-(S)-amino-N-(2-imidazol-4-ylethyl)pentanamide] is 63 ± 1 nM; for `CC(C)C[C@H](N)C(=O)NCCc1c[nH]cn1` [Example 20, 2-(S)-Amino-N-(2-imidazol-4-ylethyl)-4-methylpentanamide] it is 122 ± 37 nM. On to `c1ncc(CCCCCCC2CCCCC2)[nH]1` [Example 41, 4-(6-Cyclohexylhexyl)imidazole], for which the Ki in assay [1] turned out to be 74.5 nM. Compound `Cc1c(C)c(S(=O)(=O)NC(=N)NCCC[C@H](N)C(=O)NCCc2c[nH]cn2)c(C)c2c1OC(C)(C)CC2` [Example 17, 2-(S)-Amino-N-(2-imidazol-4ylethyl)-5-((imino(((2,2,5,7,8-pentamethylchroman-6-yl)sulfonyl)amino)methyl)amino)pentanamide] had an inhibition constant (Ki) in assay [1] of 14 ± 3 nM. This Ki is about 5.3-fold lower than that of the compound before. Same read-out and setting: the value for `CCC#CCCc1c[nH]cn1` [Example 27, 4-Hex-3-ynylimidazole] was 79 ± 22 nM; that for `c1nc(CCNC[C@@H]2CC3CCCCC3N2)c[nH]1` (stereo partly drawn) [Example 22, ((7-Azabicyclo[4.3.0]non-(S)-8-yl)methyl)(2-imidazol-4-ylethyl)amine] was 66 ± 4 nM; that for `CCCCCCCC#CCCc1c[nH]cn1` [Example 34, 4-Undec-3-ynylimidazole] was 2.8 ± 0.7 nM. As to `N[C@H](C(=O)NCCc1c[nH]cn1)c1ccccc1` [Example 9, 2-(S)-Amino-N-(2-imidazol-4-ylethyl)-2-phenylethanamide], the Ki in assay [1] was found to be 630 ± 51 nM. Same read-out and setting: the figure for `CN(CCc1c[nH]cn1)C(=O)[C@@H]1CC2CCCCC2N1` (stereo partly drawn) [Example 18, (7-Azabicyclo[4.3.0]non-(S)-8-yl)-N-(2-imidazol-4-ylethyl)-N-methylformamide] is 45 ± 11 nM; for `CC(C)CCC#CCCc1c[nH]cn1` [Example 29, 4-(7-Methyloct-3-ynyl)imidazole] it is 3.7 ± 1.1 nM; for `N[C@@H](CC(=O)OCc1ccccc1)C(=O)NCCc1c[nH]cn1` [Example 15, Phenylmethyl-3-(S)-amino-3-(N-(2-imidazol-4-ylethyl)carbamoyl)propanoate] it is 81.6 ± 13.6 nM.

With `C(#CCCC1CCCCC1)CCc1c[nH]cn1` [Example 23, 4-(6-Cyclohexylhex-3-ynyl)imidazole], in assay [1], the Ki amounted to 2.9 ± 0.2 nM. The same measure, in the same setting: the value for `N[C@H](/C=C/CCc1c[nH]cn1)CC1CCCCC1` [Example 26, 1-Cyclohexyl-6-imidazol-4-ylhex-trans-3-en-2-(S)-ylamine] was 1 ± 0.1 nM; that for `N[C@@H](Cc1c[nH]cn1)C(=O)NCCc1c[nH]cn1` [Example 16, 2-(S)-Amino-3-imidazol-4-yl-N-(2-imidazol-4-ylethyl)propanamide] was 3260 ± 457 nM; that for `CCCC#CCCc1c[nH]cn1` [Example 28, 4-Heptyl-3-ynylimidazole] was 27 ± 7.5 nM. Take `N[C@@H](CCc1ccccc1)C(=O)NCCc1c[nH]cn1` [Example 11, 2-(S)-Amino-N-(2-imidazol-4-ylethyl)-4-phenylbutanamide]: the Ki in assay [1] was 10.9 ± 1.7 nM. Turning to `C[C@@H](N)Cc1cnc[nH]1` [RAMHA], the “deep slow wave sleep” value in assay [2] (oral administration) is “significant increase”. As for `N[C@H](Cc1ccccc1)C(=O)NCCc1c[nH]cn1` [Example 4, 2-(R)-Amino-N-(2-imidazol-4-yletyl)-3-phenyl propanamide], the Ki in assay [1] was above 10000 nM. The same measure, in the same setting: the figure for `O=C(NCCc1c[nH]cn1)[C@@H]1CCCN1` [Example 2, N-(2-Imidazol-4-ylethyl)-(S)-pyrrolidin-2-ylformamide] is 202 ± 2 nM.

In assay [1], `C(#Cc1c[nH]cn1)CCCC1CCCCC1` [Example 36, 4-(5-Cyclohexylpent-1-ynyl)imidazole] had an inhibition constant (Ki) of 863 ± 139 nM. In assay [1], `C(#CCCc1c[nH]cn1)CCCc1ccccc1` [Example 39, 4-(7-Phenylhept-3-ynyl)imidazole] showed a Ki of 6.7 ± 0.6 nM. `CCCCCC#CCCc1c[nH]cn1` [Example 33, 4-Non-3-ynylimidazole] returned a Ki in assay [1] of 5.6 ± 1 nM. Take `N[C@@H](COCc1ccccc1)C(=O)NCCc1c[nH]cn1` [Example 14, 2-(S)-Amino-N-(2-imidazol-4-ylethyl)-3-(phenylmethoxy)propanamide]: affinity in assay [1] was put at a Ki of 122 ± 11 nM.

`O=C(NCCc1c[nH]cn1)[C@@H]1Cc2ccccc2CN1` [Example 3]: the affinity in assay [1], expressed as Ki, was 82.7 ± 7.7 nM. This Ki and that of the compound before are within 1.5-fold of each other.

In assay [1], `N[C@@H](CC1CCCCC1)C(=O)NCCc1cnc[nH]1` [Example 6, 2-(S)-Amino-3-cyclohexyl-N-(2-imidazol-4-ylethyl)propanamide] displayed a Ki of 30.8 ± 2.1 nM.

As to `CC(=O)N[C@@H](CC1CCCCC1)C(=O)NCCc1c[nH]cn1` [Example 10, 2-(S)-(Acetylamino)-3-cycohexyl-N-(2-imidazol-4-ylethyl)propanamide], the Ki in assay [1] was found to be 5490 ± 255 nM.
